How the values were obtained:
NBD1 = target: T1, NBD1 (Homo sapiens, UniProt P13569); assay: Aggregation analysis using differential static light scattering (DSLS), thermal stability of NBD1 (ΔTagg); type: binding; settings: ΔTagg versus DMSO control, NBD1 0.2 mg/ml
T1 construct: Purified recombinant NBD1 was produced using previously described methods; made in house
Outline: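 Thermal aggregation of purified NBD1 was followed by static light scattering during a 1° C./min ramp to 70° C. Protein was at 0.2 mg/ml with 2 mM ATP at pH7.6. Each compound's Tagg was referenced to DMSO controls.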

CFTR = target: T2, CFTR (Homo sapiens, UniProt P13569, DEL508-508); assay: TECC24 AUC fold over DMSO @10 μM, CFTR-mediated transepithelial chloride transport in CF-HBE cells; type: cell-based; settings: test agent AUC divided by DMSO vehicle AUC, primary CF-HBE cells, ΔF508 homozygous donor, 48 hours incubation
T2 construct: Primary human bronchial epithelial cells from a ΔF508 homozygous CF donor; host or cells: primary human bronchial epithelial cells (CF-HBE), ΔF508 homozygous donor
Outline: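 Primary ΔF508-homozygous CF bronchial epithelial cells on inserts were incubated 48 h at 36.5 °C with compound in IL-13-containing medium. VT and TEER were then recorded in current-clamp mode (pH 7.4 HEPES bath) with benzamil 10 μM, forskolin 10 μM, then CFTR inhibitor-172 20 μM. The IEQ AUC between forskolin and inhibitor was divided by vehicle AUC.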

T1 sequence (P13569 423-646 limits assumed): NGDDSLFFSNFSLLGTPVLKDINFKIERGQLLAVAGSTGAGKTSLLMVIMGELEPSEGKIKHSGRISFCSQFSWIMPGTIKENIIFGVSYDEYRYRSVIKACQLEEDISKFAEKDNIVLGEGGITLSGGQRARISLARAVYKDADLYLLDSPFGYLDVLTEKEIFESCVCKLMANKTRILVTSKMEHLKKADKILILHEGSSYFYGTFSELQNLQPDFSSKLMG
T2 sequence (P13569 with tags, fused parts or gaps DEL508-508): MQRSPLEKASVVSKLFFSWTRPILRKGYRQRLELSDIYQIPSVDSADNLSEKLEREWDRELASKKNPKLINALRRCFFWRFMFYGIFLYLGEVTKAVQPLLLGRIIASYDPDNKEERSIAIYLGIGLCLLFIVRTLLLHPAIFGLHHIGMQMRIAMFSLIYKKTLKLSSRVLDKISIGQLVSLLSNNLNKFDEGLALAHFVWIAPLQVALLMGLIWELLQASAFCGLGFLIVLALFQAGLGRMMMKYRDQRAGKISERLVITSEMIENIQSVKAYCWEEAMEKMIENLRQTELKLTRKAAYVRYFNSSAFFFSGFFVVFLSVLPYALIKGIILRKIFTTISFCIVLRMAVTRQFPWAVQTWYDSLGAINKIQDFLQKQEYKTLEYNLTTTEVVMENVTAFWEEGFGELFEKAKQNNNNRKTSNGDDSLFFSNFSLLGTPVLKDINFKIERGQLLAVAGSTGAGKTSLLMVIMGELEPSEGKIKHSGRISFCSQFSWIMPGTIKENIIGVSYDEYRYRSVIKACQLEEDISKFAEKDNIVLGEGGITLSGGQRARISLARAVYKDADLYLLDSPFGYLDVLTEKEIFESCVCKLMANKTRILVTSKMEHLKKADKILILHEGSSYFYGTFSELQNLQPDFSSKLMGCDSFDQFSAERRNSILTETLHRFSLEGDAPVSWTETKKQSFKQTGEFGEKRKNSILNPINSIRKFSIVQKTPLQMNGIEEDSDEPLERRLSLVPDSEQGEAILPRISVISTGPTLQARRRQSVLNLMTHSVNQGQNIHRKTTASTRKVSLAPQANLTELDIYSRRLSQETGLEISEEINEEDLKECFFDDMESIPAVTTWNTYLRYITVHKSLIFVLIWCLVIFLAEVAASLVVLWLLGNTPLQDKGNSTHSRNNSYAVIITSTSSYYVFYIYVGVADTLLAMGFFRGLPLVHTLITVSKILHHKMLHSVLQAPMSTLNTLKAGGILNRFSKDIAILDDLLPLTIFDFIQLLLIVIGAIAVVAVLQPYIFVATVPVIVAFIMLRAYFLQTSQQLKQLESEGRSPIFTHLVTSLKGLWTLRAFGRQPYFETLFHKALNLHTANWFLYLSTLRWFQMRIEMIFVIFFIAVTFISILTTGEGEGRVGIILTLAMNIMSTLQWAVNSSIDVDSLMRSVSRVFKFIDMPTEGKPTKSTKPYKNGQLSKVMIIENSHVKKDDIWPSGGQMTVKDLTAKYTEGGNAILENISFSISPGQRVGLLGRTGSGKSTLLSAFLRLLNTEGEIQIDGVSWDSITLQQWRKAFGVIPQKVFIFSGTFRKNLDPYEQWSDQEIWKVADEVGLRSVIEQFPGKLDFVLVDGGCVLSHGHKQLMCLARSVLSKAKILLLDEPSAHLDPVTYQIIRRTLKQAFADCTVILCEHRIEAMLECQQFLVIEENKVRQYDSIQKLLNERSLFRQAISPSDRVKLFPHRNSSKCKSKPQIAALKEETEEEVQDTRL

**Q.** Which results are given for `Cn1cc2nc1-c1cc(ccc1F)Oc1c(F)cc3[nH]ccc3c1CCS(=O)(=O)CC(C)(C)CCCC2(C)c1cccc(CCC(=O)O)c1` (stereo not shown) [Compound 77, 3-[3-(22,28-Difluoro-3,6,10,10-tetramethyl-12,12-dioxo-24-oxa-12λ6-thia-3,19,30-triazapentacyclo[23.3.1.12,5.015,23.016,20]triaconta-1(29),2(30),4,15,17,20,22,25,27-nonaen-6-yl)phenyl]propanoic Acid]?
**A.** DSLS 3D (100 μM ΔT) (NBD1): C (a value greater than 10 °C and less than or equal to 25 °C is marked “C”); TECC (AUC, 10 μM) (CFTR): A (a TECC value less than 12 is marked “A”)

**Q.** What does the source list for `Cn1nc2nc1-c1cc(ccc1F)Oc1c(F)cc3[nH]ccc3c1CCS(=O)(=O)CC(C)(C)OCCC2(C)c1cccc(CCO)c1` (stereo not shown) [Compound 78, 2-[3-(22,28-Difluoro-3,6,10,10-tetramethyl-12,12-dioxo-9,24-dioxa-12lambda6-thia-3,4,19,30-tetrazapentacyclo-[23.3.1.12,5.015,23.016,20]triaconta-1(29),2(30),4,15,17,20,22,25,27-nonaen-6-yl)phenyl]-ethanol]?
**A.** DSLS 3D (100 μM ΔT) (NBD1): B (a value above 5 °C and less than or equal to 10 °C is marked “B”); TECC (AUC, 10 μM) (CFTR): A (a TECC value less than 12 is marked “A”)

**Q.** With `CCOC(=O)CCc1cccc(C2CCS(=O)(=O)CCS(=O)(=O)CCc3c(c(F)cc4[nH]ccc34)Oc3ccc(F)c(c3)-c3ccn2n3)c1` (stereo not shown) [Compound 92, Ethyl 3-[3-(22,28-difluoro-9,9,12,12-tetraoxo-24-oxa-9lambda6,12lambda6-dithia-5,19,30-triazapentacyclo[23.3.1.12,5.015,23.016,20]triaconta-1(29),2(30),3,15,17,20,22,25,27-nonaen-6-yl)phenyl]propanoate] as the molecule, how does the “DSLS 3D (100 μM ΔT)” value (NBD1) read?
**A.** A (an ΔTagg value less than or equal to 5 °C is marked “A”)

**Q.** What about the “TECC (AUC, 10 μM)” value (CFTR) of the same molecule?
**A.** A (a TECC value less than 12 is marked “A”)

**Q.** How did the “DSLS 3D (100 μM ΔT)” value (NBD1) turn out when `Cn1nc2nc1-c1cc(ccc1F)Oc1c(F)cc3[nH]ccc3c1Cc1ccnn1CCS(=O)(=O)CCC2(C)c1cccc(CCC(=O)O)c1` (stereo not shown) [Compound 99, 3-[3-(25,31-Difluoro-3,6-dimethyl-9,9-dioxo-27-oxa-9λ6-thia-3,4,12,13,22,33-hexazahexacyclo[26.3.1.12,5.012,16.018,26.019,23]tritriaconta-1(32),2(33),4,13,15,18,20,23,25,28,30-undecaen-6-yl)phenyl]propanoic Acid] was run?
**A.** A (an ΔTagg value less than or equal to 5 °C is marked “A”)

**Q.** What about the “TECC (AUC, 10 μM)” value (CFTR) of the same molecule?
**A.** A (a TECC value less than 12 is marked “A”)

**Q.** `Cn1nc2nc1-c1cc(ccc1F)Oc1c(F)cc3[nH]ccc3c1CCS(=O)(=O)CC(C)(C)CCCC2(CO)c1cccc(CCC(=O)O)c1` (stereo not shown) [Compound 103, 3-[3-[22,28-Difluoro-6-(hydroxymethyl)-3,10,10-trimethyl-12,12-dioxo-24-oxa-12lambda6-thia-3,4,19,30-tetrazapentacyclo[23.3.1.12,5.015,23.016,20]triaconta-1(29),2(30),4,15,17,20,22,25,27-nonaen-6-yl]phenyl]propanoic Acid] was tested. Which “DSLS 3D (100 μM ΔT)” value (NBD1) did it give?
**A.** C (a value greater than 10 °C and less than or equal to 25 °C is marked “C”)

**Q.** What about the “TECC (AUC, 10 μM)” value (CFTR) of the same molecule?
**A.** A (a TECC value less than 12 is marked “A”)

**Q.** What does the source list for `Cn1nc2nc1-c1cc(ccc1F)Oc1c(F)cc3[nH]ccc3c1CCS(=O)(=O)CC(C)(C)CCCC2(C#N)c1cccc(CCC(=O)O)c1` (stereo not shown) [Compound 104, 3-[3-(6-Cyano-22,28-difluoro-3,10,10-trimethyl-12,12-dioxo-24-oxa-12lambda6-thia-3,4,19,30-tetrazapentacyclo[23.3.1.12,5.015,23.016,20]triaconta-1(29),2(30),4,15,17,20,22,25,27-nonaen-6-yl)phenyl]propanoic Acid]?
**A.** DSLS 3D (100 μM ΔT) (NBD1): C (a value greater than 10 °C and less than or equal to 25 °C is marked “C”); TECC (AUC, 10 μM) (CFTR): C (a value between 20 and 80 is marked “C”)

**Q.** Which “DSLS 3D (100 μM ΔT)” value (NBD1) does the source give for `Cn1nc2nc1-c1cc(ccc1F)Oc1c(F)cc3[nH]ccc3c1CCS(=O)(=O)CC(C)(C)CCCC2(CF)c1cccc(CCC(=O)O)c1` (stereo not shown) [Compound 105, 3-[3-[22,28-Difluoro-6-(fluoromethyl)-3,10,10-trimethyl-12,12-dioxo-24-oxa-12lambda6-thia-3,4,19,30-tetrazapentacyclo-[23.3.1.12,5.015,23.016,20]triaconta-1(29),2(30),4,15,17,20,22,25,27-nonaen-6-yl]phenyl]propanoic acid] here?
**A.** B (a value above 5 °C and less than or equal to 10 °C is marked “B”)

**Q.** And the “TECC (AUC, 10 μM)” value (CFTR)?
**A.** A (a TECC value less than 12 is marked “A”)

**Q.** Which “DSLS 3D (100 μM ΔT)” value (NBD1) does the source give for `Cn1nc2nc1-c1cc(ccc1F)Oc1c(F)cc3[nH]ccc3c1CCS(=O)(=O)CC(C)(C)C(F)(F)CCC2(C)c1cccc(CCC(=O)O)c1` (stereo not shown) [Compound 106, 3-[3-(9,9,22,28-Tetrafluoro-3,6,10,10-tetramethyl-12,12-dioxo-24-oxa-12lambda6-thia-3,4,19,30-tetrazapentacyclo[23.3.1.12,5.015,23.016,20]triaconta-1(29),2(30),4,15,17,20,22,25,27-nonaen-6-yl)phenyl]propanoic Acid] here?
**A.** C (a value greater than 10 °C and less than or equal to 25 °C is marked “C”)

**Q.** And the “TECC (AUC, 10 μM)” value (CFTR)?
**A.** A (a TECC value less than 12 is marked “A”)

**Q.** `Cn1nc2nc1-c1cc(ccc1F)Oc1c(F)cc3[nH]ccc3c1CCS(=O)(=O)CC(C)(C)/C(F)=C/CC2(C)c1cccc(CCC(=O)O)c1` (stereo not shown) [Compound 107, 3-[3-[(8Z)-9,22,28-Trifluoro-3,6,10,10-tetramethyl-12,12-dioxo-24-oxa-12lambda6-thia-3,4,19,30-tetrazapentacyclo-[23.3.1.12,5.015,23.016,20]triaconta-1(29),2(30),4,8,15,17,20,22,25,27-decaen-6-yl]phenyl]propanoic acid] was tested. Which “DSLS 3D (100 μM ΔT)” value (NBD1) did it give?
**A.** C (a value greater than 10 °C and less than or equal to 25 °C is marked “C”)

**Q.** What about the “TECC (AUC, 10 μM)” value (CFTR) of the same molecule?
**A.** A (a TECC value less than 12 is marked “A”)

**Q.** Which results are given for `CC(Cc1cccc(C2(C)CCS(=O)(=O)CC(C)(C)c3cnn(c3)Cc3c(c(F)cc4[nH]ccc34)Oc3ccc(F)c(c3)-c3nc2nn3C)c1)C(=O)O` (stereo not shown) [Compound 110, 3-[3-(24,30-Difluoro-3,6,11,11-tetramethyl-9,9-dioxo-26-oxa-9lambda6-thia-3,4,14,15,21,33-hexazahexacyclo-[25.3.1.12,5.112,15.017,25.018,22]tritriaconta-1(31),2(33),4,12(32),13,17,19,22,24,27,29-undecaen-6-yl)phenyl]-2-methyl-propanoic Acid]?
**A.** DSLS 3D (100 μM ΔT) (NBD1): B (a value above 5 °C and less than or equal to 10 °C is marked “B”); TECC (AUC, 10 μM) (CFTR): C (a value between 20 and 80 is marked “C”)

**Q.** `Cn1nc2nc1-c1cc(ccc1F)Oc1c(F)cc3[nH]ccc3c1Cn1cc(cn1)C(C)(C)S(=O)(=O)CCCC2(C)c1cccc(CCC(=O)O)c1` (stereo not shown) [Compound 111, 3-[3-(24,30-Difluoro-3,6,11,11-tetramethyl-10,10-dioxo-26-oxa-10λ6-thia-3,4,14,15,21,33-hexazahexacyclo[25.3.1.12,5.112,15.017,25.018,22]-tritriaconta-1(31),2(33),4,12(32),13,17,19,22,24,27,29-undecaen-6-yl)phenyl]propanoic Acid] was tested. Which “DSLS 3D (100 μM ΔT)” value (NBD1) did it give?
**A.** C (a value greater than 10 °C and less than or equal to 25 °C is marked “C”)

**Q.** What about the “TECC (AUC, 10 μM)” value (CFTR) of the same molecule?
**A.** B (a value between 12-20 is marked “B”)

**Q.** Which results are given for `CC(Cc1cccc(C2(C)CCS(=O)(=O)CCS(=O)(=O)CCc3c(c(F)cc4[nH]ccc34)Oc3ccc(F)c(c3)-c3nc2nn3C)c1)C(=O)O` (stereo not shown) [Compound 112, 3-[3-(22,28-Difluoro-3,6-dimethyl-9,9,12,12-tetraoxo-24-oxa-9lambda6,12lambda6-dithia-3,4,19,30-tetrazapentacyclo[23.3.1.12,5.015,23.016,20]triaconta-1(29),2(30),4,15,17,20,22,25,27-nonaen-6-yl)phenyl]-2-methyl-propanoic Acid]?
**A.** DSLS 3D (100 μM ΔT) (NBD1): B (a value above 5 °C and less than or equal to 10 °C is marked “B”); TECC (AUC, 10 μM) (CFTR): A (a TECC value less than 12 is marked “A”)

**Q.** `CC(Cc1cccc(C2CCCC(C)(C)CS(=O)(=O)CCc3c(c(F)cc4[nH]ccc34)Oc3ccc(F)c(c3)-c3nc2nn3C)c1)C(=O)O` (stereo not shown) [Compound 114, 3-[3-(22,28-Difluoro-3,10,10-trimethyl-12,12-dioxo-24-oxa-12λ6-thia-3,4,19,30-tetrazapentacyclo[23.3.1.12,5.015,23.016,20]triaconta-1(29),2(30),4,15,17,20,22,25,27-nonaen-6-yl)phenyl]-2-methyl-propanoic Acid] was tested. Which “DSLS 3D (100 μM ΔT)” value (NBD1) did it give?
**A.** C (a value greater than 10 °C and less than or equal to 25 °C is marked “C”)

**Q.** And the “TECC (AUC, 10 μM)” value (CFTR)?
**A.** B (a value between 12-20 is marked “B”)

**Q.** Which results are given for `CC(Cc1cccc(C2(C3SCCS3)CCCC(C)(C)CS(=O)(=O)CCc3c(c(F)cc4[nH]ccc34)Oc3ccc(F)c(c3)-c3nc2nn3C)c1)C(=O)O` (stereo not shown) [Compound 115, 3-[3-[6-(1,3-Dithiolan-2-yl)-22,28-difluoro-3,10,10-trimethyl-12,12-dioxo-24-oxa-12λ6-thia-3,4,19,30-tetrazapentacyclo-[23.3.1.12,5.015,23.016,20]triaconta-1(29),2(30),4,15,17,20,22,25,27-nonaen-6-yl]phenyl]-2-methyl-propanoic Acid]?
**A.** DSLS 3D (100 μM ΔT) (NBD1): C (a value greater than 10 °C and less than or equal to 25 °C is marked “C”); TECC (AUC, 10 μM) (CFTR): A (a TECC value less than 12 is marked “A”)
